Assay results published in paper PMC7711741 (Journal of medicinal chemistry, 2015).

Columns and labels:
huPA-H99Y = assay: Ki determination, chromogenic substrate S-2444; format: biochemical, human; details: versus peptide 2
murine uPA = murine uPA (Mus musculus, UniProt P06869); assay: Ki determination, chromogenic substrate S-2444; format: biochemical; details: for fold increase in Ki for muPA: versus peptide 2
human PK = human PK (Homo sapiens, UniProt P03952); assay: Ki determination, chromogenic substrate S-2302; format: biochemical; details: versus mupain-1–16
human PK, sequence (P03952 20-638): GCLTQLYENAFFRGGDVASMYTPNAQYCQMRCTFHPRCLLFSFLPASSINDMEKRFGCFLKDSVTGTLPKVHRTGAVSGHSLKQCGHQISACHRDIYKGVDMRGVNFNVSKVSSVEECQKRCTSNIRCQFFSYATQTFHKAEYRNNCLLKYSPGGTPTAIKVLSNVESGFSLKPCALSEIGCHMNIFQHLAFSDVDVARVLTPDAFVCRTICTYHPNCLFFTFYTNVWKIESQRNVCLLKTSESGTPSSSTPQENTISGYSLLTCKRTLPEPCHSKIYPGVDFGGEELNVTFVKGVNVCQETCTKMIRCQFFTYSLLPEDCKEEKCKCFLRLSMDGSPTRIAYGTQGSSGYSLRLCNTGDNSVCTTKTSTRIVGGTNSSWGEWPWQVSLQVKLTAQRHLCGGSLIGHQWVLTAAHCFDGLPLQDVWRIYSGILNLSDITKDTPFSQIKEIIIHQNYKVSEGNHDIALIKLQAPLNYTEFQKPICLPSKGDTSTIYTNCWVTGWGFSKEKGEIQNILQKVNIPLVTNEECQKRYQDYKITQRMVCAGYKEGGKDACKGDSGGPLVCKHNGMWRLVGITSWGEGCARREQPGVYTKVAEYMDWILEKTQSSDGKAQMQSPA

murine uPA, sequence (P06869 21-433): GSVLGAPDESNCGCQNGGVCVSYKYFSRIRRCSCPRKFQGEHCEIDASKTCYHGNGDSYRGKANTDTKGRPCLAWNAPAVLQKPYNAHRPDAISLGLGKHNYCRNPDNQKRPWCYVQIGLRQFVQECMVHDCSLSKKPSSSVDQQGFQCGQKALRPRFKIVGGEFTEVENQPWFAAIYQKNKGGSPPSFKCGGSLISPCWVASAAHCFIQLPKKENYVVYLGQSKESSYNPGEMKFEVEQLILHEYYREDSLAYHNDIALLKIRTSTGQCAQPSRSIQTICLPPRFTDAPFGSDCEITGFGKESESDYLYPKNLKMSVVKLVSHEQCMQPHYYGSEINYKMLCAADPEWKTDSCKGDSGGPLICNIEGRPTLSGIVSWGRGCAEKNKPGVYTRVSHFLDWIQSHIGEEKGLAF

Substance	fold increase in Ki for huPA-H99Y (huPA-H99Y) [fold]	fold increase in Ki for muPA (murine uPA) [fold]	fold lower Ki for inhibition of hPK (human PK) [fold]	fold weakened affinity to muPA (murine uPA; versus peptide 1)
CPAKS[L-3-(N-amidino-4-piperidyl)alanine]AL[KAc]C [peptide 4]	100	100		
CPARS[L-3-(N-amidino-4-piperidyl)alanine]AL[KAc]C [peptide 3]	100	100		
CPAYS[L-3-(N-amidino-4-piperidyl)alanine]-ALDC [peptide 1]			10	
CPAYS[L-3-(N-amidino-4-piperidyl)alanine]AL[KAc]C [peptide 2]				about 10 fold
